# Experiments:
# Cryptosporidium parvum = experiment: Experimentally infected suckling mice, oocyst shedding; type: in vivo
# Protocol: The effect of nitazoxanide was tested against Cryptosporidium parvum in experimentally infected mice. Nitazoxanide was supplied by Romark Laboratories, L.C. in Tampa, Florida. The total human dose (1 g/day for 7 days i.e. 7 g) was modified for use for mice according to Paget and Barnes. The human dose was multiplied by 0.0026 for mice (weighing approximately 20 grams) to obtain he total amount of the drug needed for each host morning and evening for 7 consecutive days. […] The doses were administered by mouth using a plastic syringe equipped with around tip needle. Twenty (20) 2-day old suckling mice were infected by oral administration of 100,000 oocysts of Crytospordium parvum obtained from infected calves. Before being administered to mice, the oocysts were concentrated using a sugar solution according to the technique described by […]. Rectal swabs from each mouse were obtained and examined daily using the modified […] staining technique described by Graczyk et al. Oocysts shedding appeared in feces 2 days after the oral infection of the animals. On the third day following infection of the animals, 10 mice received 1.3 mg of nitazoxanide, morning and evening, for 7 consecutive days while the 10 remaining mice were kept as untreated controls. Rectal swabs were obtained daily for each of the 7 days of treatment and for each of the 7 days following the end of treatment. The oocysts were suspended in oil and counted per 100 fields under a microscope.
# [1] = tested on: early mature (10-week/old) F. gigantica; experiment: Experimentally infected rabbits, early mature flukes; type: in vivo, Fasciola gigantica
# Protocol: Nitazoxanide was tested against immature and mature Fasciola gigantica in experimentally infected rabbits. Fasciola gigantica encysted metacercariae (EMC) were collected on cellophane sheet after 28-35 days from infection of L. calludi snails by Fasciola gigantica miracidium using the technique described by […] snails were exposed daily to artificial light, for 30 minutes, in clean dechlorinated tap water. The resulting encysted […]) were preserved at 4°C in a refrigerator for 5 to 8 days under the surface of water until they were used to infect experimental animals. Forty (40) Boscat rabbits, weighting 1.5 to 2 kg each, were included in the study and allocated to two treatment groups of 20 animals. […] Ten animals from Group 2 received 35 mg of nitazoxanide, morning and evening, for 7 consecutive days 10 weeks after their infection at the mature stage of the parasite. The 10 remaining animals in Group 2 were kept as untreated controls. All animals were fed with dry ration until the end of the experiment. Seven days after administration of the last dose of nitazoxanide, all rabbits from each group were sacrificed. The surface of the liver was examined for the presence of necrotic migrating furrows especially at the immature stage of the parasite cycle. These necrotic areas were examined using two surgical needles in order to extract the juvenile migrating flukes according to the technique described by El-Bahy. The livers were sliced in small pieces especially around the migrating furrows and macerated under a microscope in order to extract the existing flukes. The abdominal cavity and the visceral surfaces were washed with warm water. The water was then collected, sieved and examined for identification of juvenile flukes. All the collected parasites as well as parts of them were counted in both treated and untreated animal in both Groups 1 and 2. […] The efficacy of nitazoxanide was calculated by using the formula indicated below: % efficacy(a - b)/(a)x 100 [formula] Where: • a = the number of flukes recovered from feces in the control animals • b = the number of flukes recovered from feces in the treated animals.
# [2] = tested on: M. intracellular ATCC 13950; experiment: MIC by standard agar dilution; type: cell-based, Mycobacterium intracellular; settings: Mycobacterium, ATCC13950, 504 h, Middlebrook 7H11 agar, 3 weeks
# mycobacteria = experiment: MTS colorimetric assay of mycobacteria growing in a liquid broth; type: cell-based
# Protocol: Fig. 7 is a chart based upon the assay for nitazoxanide effectiveness against mycobacteria growing in a liquid broth. We used the MTS colorimetric assay which permits us to determine growth in 4 hours rather than 3 weeks as with the agar counting method.
# Solubility in DMSO = type: physicochemical; settings: in 1 ml DMSO
# Protocol: Nitazoxanide (NTZ), the compound of formula (II), is the generic name for 2-(acetolyloxy)-N-(5-nitro 2-thiazoly) benzamide, a compound first synthesized by Rossignol and Cavier in 1975. 2 mg of nitazoxanide can be dissolved in 1 ml DMSO. Nitazoxanide is easily absorbed orally.
# [3] = mean of 10 rabbits, 70 mg/day for 7 consecutive days
compound,measurement,setting,value
"CC(=O)Oc1ccccc1C(=O)Nc1ncc([N+](=O)[O-])s1 [Nitazoxanide, 2-(acetolyloxy)-N-(5-nitro 2-thiazoly) benzamide]",oocyst shedding at the end of treatment,"Cryptosporidium parvum; Day 7, 2.6 mg/day by mouth for 7 consecutive days, suckling mice",complete reduction of the oocyst shedding
same,fecal examinations after the end of treatment,Cryptosporidium parvum; days 3 and 7 after the end of treatment,negative examinations
same,treated mice with decreased oocysts shedding,"Cryptosporidium parvum; end of the third day of treatment, 2.6 mg/day by mouth for 7 consecutive days, suckling mice",6 of the 10
same,overall efficacy,[1]; 70 mg/day dose for 7 consecutive days,completely effective
same,No. of flukes extracted from liver of Treated Rabbits,"[1]; individual rabbits No. 1-10, 35 mg morning and evening for 7 consecutive days, 10 weeks after infection",0.0
same,Efficacy %,"[1]; individual rabbits No. 1-10 versus untreated control, 35 mg morning and evening for 7 consecutive days",100%
same,"Efficacy %, Mean (reduction)",[1]; [3],100%
same,"No. of flukes extracted from liver of Treated Rabbits, Mean",[1]; [3],0.0
same,MIC,[2],2 µg/mL
same,effect on continued growth,mycobacteria; 3 µg/ml dose added at the 72 hr after culture was initiated,stops growth for the next 24 hrs and then there is a slow growth afterwards for the next 2 days
same,effect on continued growth,mycobacteria; 50 µg/ml dose added at the 72 hr after culture was initiated,completely bacteriostatic throughout the 144 hours of the culture
same,amount that can be dissolved,Solubility in DMSO,2 mg

# Source: patent publication EP1222921B1, “Pharmaceutical compositions of tizoxanide and/or nitazoxanide” (Romark Laboratories, L.C., priority 1997, dated 1998)
